Several values for one entry are separate records, joined by “and”; a condition that tells them apart may be missing. Identical values can stand only once.
Experiments:
[1] = molecular target: T1, CXCR2 (Homo sapiens, UniProt P25025); assay: Live cell NanoBRET association and dissociation kinetic assay; format: binding; conditions: 37 °C
T1 construct: Promega pNLF1-C (Nluc) #CXCR20TN00; host or cells: HEK293T, transient transfection (PEI)
T1 sequence (P25025 1-360): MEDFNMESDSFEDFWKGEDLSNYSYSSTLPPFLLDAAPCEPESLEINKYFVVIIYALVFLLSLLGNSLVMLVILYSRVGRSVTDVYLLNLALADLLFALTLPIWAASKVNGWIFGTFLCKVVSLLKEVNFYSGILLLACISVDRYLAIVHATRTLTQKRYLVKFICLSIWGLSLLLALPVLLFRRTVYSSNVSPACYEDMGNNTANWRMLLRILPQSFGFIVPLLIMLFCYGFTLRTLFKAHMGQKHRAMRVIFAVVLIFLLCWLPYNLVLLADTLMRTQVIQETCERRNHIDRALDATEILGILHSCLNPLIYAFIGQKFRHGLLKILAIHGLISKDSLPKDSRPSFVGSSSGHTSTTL
Method: HEK293T cells were transfected with the plasmid (5.5 μg) for CXCR2_Nluc using polyethylenimine (PEI) as the transfection reagent (PEI/DNA ratio 3:1). After 24 h at 37 °C and 5% CO2, the cells were detached with DMEM and transferred to a white F-bottom 384-well plate (10,000 cells/well), which was coated with 5 μL/well poly-D-lysine (0.1 mg/mL, dissolved in water), and incubated for further 24 h at 37 °C and 5% CO2. Subsequently, the cells were washed with phosphate-buffered saline (Gibco DPBS, with CaCl2 and MgCl2). 15 μL of the assay medium (Gibco DMEM/F12, 15 mM HEPES, no phenol red supplemented with 5% FBS) and 5 μL of vivazine (final assay dilution: 1:300 in the assay buffer) were added and the cells were incubated at 37 °C for 90 min. Then, 5 μL of the fluorescent ligand (9a), diluted to varying concentrations (final assay concentrations: 10–0.5 nM in the assay medium) was transferred to a 384-well plate. For the determination of nonspecific binding, we added a solution of the fluorescent ligand (9a) and a nonlabeled competitor dissolved in the assay medium (3, final assay concentration: 10 μM) instead. BRET ratios were measured with a CLARIOstar microplate reader using 620/10 and 475/30 nm emission filters over time. The obtained data were analyzed using the association kinetics (two or more conc. of hot ligand) algorithm in PRISM9.5 (GraphPad) to determine the association kinetics.
After running the association assay in cells for at least 133 min, 1 μL of an unlabeled competitor dissolved in the assay buffer (3, final assay concentration: 10 μM) was added. For control experiments, we added 1 μL of the assay medium instead of the competitor solution. BRET ratios were measured with a CLARIOstar microplate reader using 620/10 and 475/30 nm emission filters over time. Specific BRET ratios were calculated as a difference of total and nonspecific binding. The obtained data were analyzed using the dissociation one phase exponential decay algorithm in PRISM9.5 (GraphPad) to determine the dissociation kinetics.

[2] = molecular target: T2, CCR7 (Homo sapiens, UniProt P32248); assay: Membrane-based NanoBRET saturation assay, selectivity (CCR7_GSSG_Nluc membranes)
T2 construct: host or cells: HEK293T; membrane preparation
T2 sequence (P32248 25-378): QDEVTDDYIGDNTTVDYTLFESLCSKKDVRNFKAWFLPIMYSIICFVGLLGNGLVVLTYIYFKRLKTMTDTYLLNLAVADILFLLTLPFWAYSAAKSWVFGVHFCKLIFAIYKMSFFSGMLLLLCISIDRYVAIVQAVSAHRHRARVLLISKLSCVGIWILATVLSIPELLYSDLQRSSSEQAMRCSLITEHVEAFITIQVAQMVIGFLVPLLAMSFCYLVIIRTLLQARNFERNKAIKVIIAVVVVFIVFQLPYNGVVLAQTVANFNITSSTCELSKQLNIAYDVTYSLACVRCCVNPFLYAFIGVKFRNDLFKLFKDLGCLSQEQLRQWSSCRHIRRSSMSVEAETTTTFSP
Method: For the establishment of our NanoBRET binding assay, we referred to a recently published protocol.[45] The fluorescent ligands (9a–c) were dissolved in DMSO (1 mM) and further diluted to varying concentrations in an assay buffer (50 mM Na2HPO4, 50 mM KH2PO4, pH 7.4, 1 mg/mL saponin, 5% FBS) and 5 μL of these dilutions were pipetted to a 384-well plate. To determine the total binding, 5 μL of the assay buffer was added to the corresponding wells, while 5 μL of a solution of 3 in the assay buffer (final assay concentration: 1 μM) was used to determine nonspecific binding. Then, 20 μL of the membrane preparations diluted in the assay buffer (2 μg total protein/well) were added and the plates were incubated for 90 min at 37 °C. Subsequently, 5 μL of a furimazine solution (Promega, Mannheim, Germany, final assay dilution: 1:5000) was added to each well (final assay volume: 35 μL) before measuring luminescence with a CLARIOstar microplate reader using 620/10 and 475/30 nm emission filters after 5 min of incubation in the dark. Bioluminescence resonance energy transfer (BRET) was determined as the ratio of acceptor fluorescence and donor luminescence. […] Specific binding signals were calculated as a difference of total and nonspecific binding. If required, netBRET values were calculated as the difference between total BRET values and the values obtained in the absence of a fluorescent ligand. […]

[3] = cells, 9a 1 nM, single determinations
[4] = cells, 9a 5 nM, single determinations
[5] = cells, 9a 10 nM, single determinations
[6] = live HEK293T cells expressing CXCR2_Nluc, mean

koff [1, 3]: 8.88e-05 s⁻¹
koff [1, 4]: 9.75e-05 s⁻¹
koff [1, 5]: 7.53e-05 s⁻¹
Kd ([1]; live HEK293T cells expressing CXCR2_Nluc): 0.2 ± 0.02 nM
koff [1, 6]: 0.000122 s⁻¹
kon [1, 6]: 620000 M⁻¹ s⁻¹
residence time tr [1, 6]: 146 ± 10 min
residence time ([1]; live HEK293T cells expressing CXCR2_Nluc, mean, read-out: residence time tr): 146 min
binding to CCR7 [2]: no significant binding
SMILES: Cc1ccc([C@H](Nc2c(Nc3cccc(C(=O)NCc4cn(CCOCCOCCOCCNC(=O)c5ccc(C(=O)[O-])c(-c6c7ccc(=[N+](C)C)cc-7oc7cc(N(C)C)ccc67)c5)nn4)c3O)c(=O)c2=O)C(C)(C)C)o1 [9a, (R)-4-((2-(2-(2-(2-(4-((3-((2-((2,2-Dimethyl-1-(5-methylfuran-2-yl)propyl)amino)-3,4-dioxocyclobut-1-en-1-yl)amino)-2-hydroxybenzamido)methyl)-1H-1,2,3-triazol-1-yl)ethoxy)ethoxy)ethoxy)ethyl)carbamoyl)-2-(6-(dimethylamino)-3-(dimethyliminio)-3H-xanthen-9-yl)benzoate]
koff [min-1] [1, 3]: 0.00837 min⁻¹ and 0.00621 min⁻¹ and 0.00861 min⁻¹
tr [1, 3]: 187.6 min and 119.5 min and 161.1 min and 116.1 min
koff [min-1] [1, 4]: 0.0072 min⁻¹ and 0.00855 min⁻¹ and 0.00476 min⁻¹
tr [1, 4]: 210.2 min and 170.9 min and 138.9 min and 117.0 min
koff [min-1] [1, 5]: 0.00791 min⁻¹ and 0.00898 min⁻¹ and 0.00859 min⁻¹
tr [1, 5]: 221.0 min and 126.4 min and 111.4 min and 116.4 min
